{
  "source": "ChEMBL document CHEMBL4411276",
  "about": "“Chemistry-oriented synthesis (ChOS) and target deconvolution on neuroprotective effect of a novel scaffold, oxaza spiroquinone” (Eur J Med Chem, 2019)",
  "key": {"[1]": {"molecular_target": "T1, Serine/threonine-protein kinase tousled-like 1 (Homo sapiens) (UniProt Q9UKI8)", "T1 sequence (whole entry)": "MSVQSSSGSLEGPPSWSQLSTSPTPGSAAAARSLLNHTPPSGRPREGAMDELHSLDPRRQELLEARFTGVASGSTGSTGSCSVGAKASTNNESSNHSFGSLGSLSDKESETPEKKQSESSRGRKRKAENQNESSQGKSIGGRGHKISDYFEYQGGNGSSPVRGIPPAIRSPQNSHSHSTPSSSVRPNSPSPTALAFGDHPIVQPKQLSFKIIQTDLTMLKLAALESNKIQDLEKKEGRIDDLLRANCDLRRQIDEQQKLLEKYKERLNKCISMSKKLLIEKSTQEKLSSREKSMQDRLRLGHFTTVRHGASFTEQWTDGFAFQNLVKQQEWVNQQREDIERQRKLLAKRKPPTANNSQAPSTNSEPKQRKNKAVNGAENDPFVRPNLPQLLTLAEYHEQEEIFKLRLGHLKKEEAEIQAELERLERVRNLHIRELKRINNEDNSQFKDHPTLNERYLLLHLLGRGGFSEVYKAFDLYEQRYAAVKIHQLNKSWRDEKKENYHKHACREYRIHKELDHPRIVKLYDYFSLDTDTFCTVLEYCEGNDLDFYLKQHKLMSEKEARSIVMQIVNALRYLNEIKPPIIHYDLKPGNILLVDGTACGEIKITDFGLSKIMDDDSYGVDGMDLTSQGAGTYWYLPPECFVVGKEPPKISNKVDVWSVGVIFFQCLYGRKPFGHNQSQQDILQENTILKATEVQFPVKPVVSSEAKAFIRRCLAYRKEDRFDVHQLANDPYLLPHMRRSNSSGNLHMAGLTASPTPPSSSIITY", "assay": "Inhibition of human TLK1 assessed as enzyme activity at 30 uM using Histone H3 as substrate by [gamma-33P]-ATP assay relative to control", "set-up": "scale not given: the % may be the effect or the level left"}, "[2]": {"assay": "Cytotoxicity against LPS-stimulated mouse BV2 cells assessed as cell survival after 24 hrs by MTT assay relative to control", "assay_type": "cell-based, BV-2", "set-up": "concentration or dose not given beside the values", "details": "read-out: Survival"}, "[3]": {"molecular_target": "Cyclin-dependent kinase 1/cyclin B1 (Homo sapiens) (UniProt P06493+P14635)", "assay": "Inhibition of human CDK1/cyclinB assessed as enzyme activity at 30 uM using Histone H1 as substrate by [gamma-33P]-ATP assay relative to control", "assay_type": "protein-complex assay", "set-up": "scale not given: the % may be the effect or the level left"}, "[4]": {"molecular_target": "Death-associated protein kinase 1 (Homo sapiens) (UniProt P53355)", "assay": "Inhibition of human DAPK1 assessed as enzyme activity at 30 uM using KKLNRTLSFAEPG as substrate by [gamma-33P]-ATP assay relative to control", "set-up": "scale not given: the % may be the effect or the level left"}, "[5]": {"molecular_target": "Mitogen-activated protein kinase 9 (Homo sapiens) (UniProt P45984)", "assay": "Inhibition of human JNK2 assessed as enzyme activity at 30 uM using ATF2 as substrate by [gamma-33P]-ATP assay relative to control", "set-up": "scale not given: the % may be the effect or the level left"}, "[6]": {"molecular_target": "Serine/threonine-protein kinase N2 (Homo sapiens) (UniProt Q16513)", "assay": "Inhibition of human PKN2 assessed as enzyme activity at 30 uM using KKLNRTLSVA as substrate by [gamma-33P]-ATP assay relative to control", "set-up": "scale not given: the % may be the effect or the level left"}, "[7]": {"molecular_target": "Mitogen-activated protein kinase 8 (Homo sapiens) (UniProt P45983)", "assay": "Inhibition of human JNK1 assessed as enzyme activity at 30 uM using ATF2 as substrate by [gamma-33P]-ATP assay relative to control", "set-up": "scale not given: the % may be the effect or the level left"}, "Mus musculus": {"tested_on": "Mus musculus", "assay": "Effect on total entries in ICR mouse model of scopolamine-induced memory impairment at 5 mg/kg by Y-maze test", "assay_type": "ADME, organism-based", "details": "in vivo"}, "[8]": {"molecular_target": "Serine/threonine-protein kinase 25 (Homo sapiens) (UniProt O00506)", "assay": "Inhibition of human STK25 assessed as enzyme activity at 30 uM using MBP as substrate by [gamma-33P]-ATP assay relative to control", "set-up": "scale not given: the % may be the effect or the level left"}, "[9]": {"molecular_target": "Protein kinase C beta type (Homo sapiens) (UniProt P05771)", "assay": "Inhibition of human PKCb2 assessed as enzyme activity at 30 uM using Histone H1 as substrate by [gamma-33P]-ATP assay relative to control", "set-up": "scale not given: the % may be the effect or the level left"}, "[10]": {"assay": "Cytotoxicity against mouse BV2 cells assessed as cell survival after 24 hrs by MTT assay relative to control", "assay_type": "cell-based, BV-2", "set-up": "concentration or dose not given beside the values", "details": "read-out: Survival"}, "[11]": {"molecular_target": "Serine/threonine-protein kinase 24 (Homo sapiens) (UniProt Q9Y6E0)", "assay": "Inhibition of human MST3 assessed as enzyme activity at 30 uM using MBP as substrate by [gamma-33P]-ATP assay relative to control", "set-up": "scale not given: the % may be the effect or the level left"}, "[12]": {"molecular_target": "Mitogen-activated protein kinase 10 (Homo sapiens) (UniProt P53779)", "assay": "Inhibition of human JNK3 assessed as enzyme activity at 30 uM using ATF2 as substrate by [gamma-33P]-ATP assay relative to control", "set-up": "scale not given: the % may be the effect or the level left"}, "[13]": {"molecular_target": "Protein kinase C alpha type (Homo sapiens) (UniProt P17252)", "assay": "Inhibition of human PKCalpha assessed as enzyme activity at 30 uM using ERMRPRKRQGSVRRRV as substrate by [gamma-33P]-ATP assay relative to control", "set-up": "scale not given: the % may be the effect or the level left"}, "[14]": {"molecular_target": "T2, NUAK family SNF1-like kinase 1 (Homo sapiens) (UniProt O60285)", "T2 sequence (whole entry)": "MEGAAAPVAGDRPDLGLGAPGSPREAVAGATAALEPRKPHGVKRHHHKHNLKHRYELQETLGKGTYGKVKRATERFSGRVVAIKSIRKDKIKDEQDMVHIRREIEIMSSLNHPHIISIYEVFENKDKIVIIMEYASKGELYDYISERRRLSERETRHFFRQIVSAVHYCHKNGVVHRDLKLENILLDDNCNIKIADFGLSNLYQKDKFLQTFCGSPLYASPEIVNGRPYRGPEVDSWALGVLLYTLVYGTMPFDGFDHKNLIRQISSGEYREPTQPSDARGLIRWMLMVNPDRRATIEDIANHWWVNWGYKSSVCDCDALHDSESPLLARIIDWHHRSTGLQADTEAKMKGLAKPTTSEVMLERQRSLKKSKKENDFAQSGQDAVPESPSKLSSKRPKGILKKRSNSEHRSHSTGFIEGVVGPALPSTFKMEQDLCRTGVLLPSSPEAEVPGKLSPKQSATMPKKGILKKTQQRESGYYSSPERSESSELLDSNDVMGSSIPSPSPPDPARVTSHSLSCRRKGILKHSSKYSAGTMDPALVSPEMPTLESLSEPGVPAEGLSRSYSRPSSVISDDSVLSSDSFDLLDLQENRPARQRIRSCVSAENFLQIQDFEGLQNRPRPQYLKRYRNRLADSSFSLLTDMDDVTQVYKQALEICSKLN", "assay": "Inhibition of human ARK5 assessed as enzyme activity at 30 uM using KKKVSRSGLYRSPSMPENLNRPR as substrate by [gamma-33P]-ATP assay relative to control", "set-up": "scale not given: the % may be the effect or the level left"}, "[15]": {"molecular_target": "CDK2/Cyclin O (Homo sapiens) (UniProt P24941+P22674)", "assay": "Inhibition of human CDK2/cyclin-O assessed as enzyme activity at 30 uM using histone H1 as substrate by [gamma-33P]-ATP assay relative to control", "assay_type": "protein-complex assay", "set-up": "scale not given: the % may be the effect or the level left"}, "[16]": {"molecular_target": "CDK3/Cyclin E (Homo sapiens) (UniProt P24864+Q00526)", "assay": "Inhibition of human CDK3/cyclin-E assessed as enzyme activity at 30 uM using histone H1 as substrate by [gamma-33P]-ATP assay relative to control", "assay_type": "protein-complex assay", "set-up": "scale not given: the % may be the effect or the level left"}},
  "data": [
    {"smiles": "O=C1C=CC2(C=C1)OCC(Cc1cc(C(F)(F)F)cc(C(F)(F)F)c1)C(=O)N2c1ccccc1", "note": "(configuration not stated)", "values": [
      {"measurement": "Activity", "setting": "[1]", "value": "57.3 to 58.6", "unit": "%"},
      {"measurement": "viability at 24 h", "setting": "[2]", "value": 92.1, "unit": "%"},
      {"measurement": "Activity", "setting": "[3]", "value": "45.4 to 46.5", "unit": "%"},
      {"measurement": "Activity", "setting": "[4]", "value": "45.3 to 45.4", "unit": "%"},
      {"measurement": "Activity", "setting": "[5]", "value": "57.8 to 58.8", "unit": "%"},
      {"measurement": "Activity", "setting": "[6]", "value": "62.2 to 64.8", "unit": "%"},
      {"measurement": "Activity", "setting": "[7]", "value": "35.6 to 36", "unit": "%"},
      {"measurement": "Activity", "setting": "Mus musculus", "value": "Non-Toxic"},
      {"measurement": "Activity", "setting": "[8]", "value": "66.9 to 67", "unit": "%"},
      {"measurement": "Activity", "setting": "[9]", "value": "67.7 to 71.2", "unit": "%"},
      {"measurement": "viability at 24 h", "setting": "[10]", "value": 85.4, "unit": "%"},
      {"measurement": "Activity", "setting": "[11]", "value": "57.6 to 58.2", "unit": "%"},
      {"measurement": "Activity", "setting": "[12]", "value": "70.6 to 73.4", "unit": "%"},
      {"measurement": "Activity", "setting": "[13]", "value": "44.8 to 46.5", "unit": "%"},
      {"measurement": "Activity", "setting": "[14]", "value": "70.7 to 70.8", "unit": "%"},
      {"measurement": "Activity", "setting": "[15]", "value": "42.3 to 43.8", "unit": "%"},
      {"measurement": "Activity", "setting": "[16]", "value": "58.5 to 60.2", "unit": "%"}
    ]}
  ]
}
